Laboratory results reported in patent US9096602B2, “Substituted pyrrolo[2,3-B]pyrazines as ATR kinase inhibitors” (Vertex Pharmaceuticals Incorporated, priority 2011, dated 2015).

These molecules were tested against T1, ATR kinase (full-length ATR) (Homo sapiens, UniProt Q13535) (assay: ATR Inhibition Assay (radioactive-phosphate incorporation)). Settings: Ki(app); 5 nM full-length ATR, 10 μM ATP, 800 μM target peptide, 25° C.; class symbols; read-out: ATR Inhibition Ki.
T1 construct: Assays were carried out at 25° C. in the presence of 5 nM full-length ATR
T1 sequence (Q13535 whole entry): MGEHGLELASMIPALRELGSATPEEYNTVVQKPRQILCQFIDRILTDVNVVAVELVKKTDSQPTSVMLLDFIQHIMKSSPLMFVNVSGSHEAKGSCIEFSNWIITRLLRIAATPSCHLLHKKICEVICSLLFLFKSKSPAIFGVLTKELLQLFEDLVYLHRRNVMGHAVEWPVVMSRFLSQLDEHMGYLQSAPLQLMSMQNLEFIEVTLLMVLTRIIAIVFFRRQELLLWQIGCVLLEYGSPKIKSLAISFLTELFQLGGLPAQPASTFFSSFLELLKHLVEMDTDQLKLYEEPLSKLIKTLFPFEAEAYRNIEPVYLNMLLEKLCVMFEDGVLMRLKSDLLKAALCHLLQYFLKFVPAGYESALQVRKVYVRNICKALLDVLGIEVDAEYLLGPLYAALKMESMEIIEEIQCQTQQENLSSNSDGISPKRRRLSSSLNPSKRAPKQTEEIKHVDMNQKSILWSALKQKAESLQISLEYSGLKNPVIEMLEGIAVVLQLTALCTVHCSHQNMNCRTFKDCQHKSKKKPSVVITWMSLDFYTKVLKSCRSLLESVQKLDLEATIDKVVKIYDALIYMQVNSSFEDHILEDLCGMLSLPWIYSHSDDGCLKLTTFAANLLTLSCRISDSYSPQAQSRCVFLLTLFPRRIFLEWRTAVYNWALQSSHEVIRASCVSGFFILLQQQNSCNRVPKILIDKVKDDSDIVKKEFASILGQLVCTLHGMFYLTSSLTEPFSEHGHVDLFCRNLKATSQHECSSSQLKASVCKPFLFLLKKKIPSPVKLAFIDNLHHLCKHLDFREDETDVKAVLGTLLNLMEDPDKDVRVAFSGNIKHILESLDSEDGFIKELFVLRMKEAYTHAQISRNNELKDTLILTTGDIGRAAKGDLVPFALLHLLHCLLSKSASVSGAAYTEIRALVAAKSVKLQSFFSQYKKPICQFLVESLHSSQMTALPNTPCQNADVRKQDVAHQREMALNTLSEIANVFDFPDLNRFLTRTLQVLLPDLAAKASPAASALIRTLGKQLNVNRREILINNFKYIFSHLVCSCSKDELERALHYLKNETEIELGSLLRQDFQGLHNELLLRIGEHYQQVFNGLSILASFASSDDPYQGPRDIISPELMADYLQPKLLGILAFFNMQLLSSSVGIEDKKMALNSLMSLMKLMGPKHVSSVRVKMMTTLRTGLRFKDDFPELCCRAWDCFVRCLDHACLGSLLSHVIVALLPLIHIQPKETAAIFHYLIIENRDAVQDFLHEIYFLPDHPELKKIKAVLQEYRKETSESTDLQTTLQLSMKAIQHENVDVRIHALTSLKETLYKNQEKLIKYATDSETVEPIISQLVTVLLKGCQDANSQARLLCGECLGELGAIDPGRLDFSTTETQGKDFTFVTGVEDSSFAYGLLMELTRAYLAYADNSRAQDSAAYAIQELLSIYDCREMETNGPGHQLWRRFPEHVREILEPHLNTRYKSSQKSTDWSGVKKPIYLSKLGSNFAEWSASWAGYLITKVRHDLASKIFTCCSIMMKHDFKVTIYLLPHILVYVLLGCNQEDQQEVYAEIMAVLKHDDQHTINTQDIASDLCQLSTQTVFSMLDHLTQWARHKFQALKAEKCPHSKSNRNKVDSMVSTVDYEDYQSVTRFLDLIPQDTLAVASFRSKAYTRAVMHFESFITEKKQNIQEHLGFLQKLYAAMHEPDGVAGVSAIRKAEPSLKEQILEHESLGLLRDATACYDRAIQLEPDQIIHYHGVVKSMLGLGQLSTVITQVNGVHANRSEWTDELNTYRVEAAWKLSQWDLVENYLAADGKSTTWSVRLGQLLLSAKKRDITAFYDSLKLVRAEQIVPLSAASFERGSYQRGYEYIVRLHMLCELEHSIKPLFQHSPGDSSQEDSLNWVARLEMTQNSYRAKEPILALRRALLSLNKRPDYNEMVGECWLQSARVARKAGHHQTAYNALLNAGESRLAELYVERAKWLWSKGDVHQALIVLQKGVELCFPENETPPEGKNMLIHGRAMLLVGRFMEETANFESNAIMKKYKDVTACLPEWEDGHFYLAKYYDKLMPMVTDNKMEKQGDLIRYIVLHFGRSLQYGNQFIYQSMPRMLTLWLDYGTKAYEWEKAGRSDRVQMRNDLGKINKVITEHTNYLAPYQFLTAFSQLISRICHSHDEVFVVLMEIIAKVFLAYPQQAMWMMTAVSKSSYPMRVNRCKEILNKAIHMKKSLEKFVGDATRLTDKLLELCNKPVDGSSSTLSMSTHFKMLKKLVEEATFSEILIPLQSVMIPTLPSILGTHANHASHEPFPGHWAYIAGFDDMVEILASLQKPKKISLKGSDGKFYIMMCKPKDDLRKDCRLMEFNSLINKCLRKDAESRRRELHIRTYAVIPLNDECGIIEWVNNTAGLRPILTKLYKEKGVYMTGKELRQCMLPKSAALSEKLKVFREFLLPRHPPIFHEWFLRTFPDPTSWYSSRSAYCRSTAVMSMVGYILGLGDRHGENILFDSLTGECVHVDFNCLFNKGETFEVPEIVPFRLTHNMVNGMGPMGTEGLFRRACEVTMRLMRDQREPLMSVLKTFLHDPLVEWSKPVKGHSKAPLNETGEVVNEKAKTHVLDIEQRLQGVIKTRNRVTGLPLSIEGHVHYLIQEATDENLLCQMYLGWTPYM
Format: biochemical
How it was run: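 Radiometric 33P filter assay with 5 nM full-length ATR in 50 mM Tris/HCl pH 7.5, 10 mM MgCl2, 1 mM DTT at 25 °C. Final 10 μM [γ-33P]ATP and 800 μM peptide; 10 min compound preincubation, ATP start, stopped at 24 h with phosphoric acid/ATP. Ki(app) from non-linear regression of background-corrected initial rates.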

Structure (SMILES) | Ki [nM]
CC(C)S(=O)(=O)c1ccc(-c2cnc3[nH]cc(C(=O)NC(CCO)c4cccc(N)c4)c3n2)cc1 (centres unmarked) [Compound I-79, N-[1-(3-aminophenyl)-3-hydroxy-propyl]-2-(4-isopropylsulfonylphenyl)-5H-pyrrolo[2,3-b]pyrazine-7-carboxamide] | 100 to 500
CC(C)S(=O)(=O)c1ccc(-c2cnc3[nH]cc(C(=O)NC(CCO)c4ccc(N)cc4)c3n2)cc1 (centres unmarked) [Compound I-80, N-[1-(4-aminophenyl)-3-hydroxy-propyl]-2-(4-isopropylsulfonylphenyl)-5H-pyrrolo[2,3-b]pyrazine-7-carboxamide] | 100 to 500
Cc1ccc([C@@H](CCO)NC(=O)c2c[nH]c3ncc(-c4ccc(S(=O)(=O)C(C)C)cc4)nc23)cc1 [Compound I-81, N-[(1R)-3-hydroxy-1-(p-tolyl)propyl]-2-(4-isopropylsulfonylphenyl)-5H-pyrrolo[2,3-b]pyrazine-7-carboxamide] | < 100
Cc1ccc(CNC(=O)c2c[nH]c3ncc(-c4ccc(S(=O)(=O)C(C)C)cc4)nc23)c(C)c1 [Compound I-82, N-[(2,4-dimethylphenyl)methyl]-2-(4-isopropylsulfonylphenyl)-5H-pyrrolo[2,3-b]pyrazine-7-carboxamide] | < 100
Cc1cccnc1CNC(=O)c1c[nH]c2ncc(-c3ccc(S(=O)(=O)C(C)C)cc3)nc12 [Compound I-83, 2-(4-isopropylsulfonylphenyl)-N-[(3-methyl-2-pyridyl)methyl]-5H-pyrrolo[2,3-b]pyrazine-7-carboxamide] | 100 to 500
CC(C)S(=O)(=O)c1ccc(-c2cnc3[nH]cc(C(=O)N[C@H](C)[C@@H](O)c4ccc(O)cc4)c3n2)cc1 [Compound I-84, N-[(1R,2S)-2-hydroxy-2-(4-hydroxyphenyl)-1-methyl-ethyl]-2-(4-isopropylsulfonylphenyl)-5H-pyrrolo[2,3-b]pyrazine-7-carboxamide] | 100 to 500
Cc1c(F)cccc1CNC(=O)c1c[nH]c2ncc(-c3ccc(S(=O)(=O)C(C)C)cc3)nc12 [Compound I-85, N-[(3-fluoro-2-methyl-phenyl)methyl]-2-(4-isopropylsulfonylphenyl)-5H-pyrrolo[2,3-b]pyrazine-7-carboxamide] | < 100
CC(C)S(=O)(=O)c1ccc(-c2cnc3[nH]cc(C(=O)NC4CCOc5ccccc54)c3n2)cc1 (centres unmarked) [Compound I-86, N-chroman-4-yl-2-(4-isopropylsulfonylphenyl)-5H-pyrrolo[2,3-b]pyrazine-7-carboxamide] | < 100
Cc1ccc(F)cc1CNC(=O)c1c[nH]c2ncc(-c3ccc(S(=O)(=O)C(C)C)cc3)nc12 [Compound I-87, N-[(5-fluoro-2-methyl-phenyl)methyl]-2-(4-isopropylsulfonylphenyl)-5H-pyrrolo[2,3-b]pyrazine-7-carboxamide] | < 100
CC(C)S(=O)(=O)c1ccc(-c2cnc3[nH]cc(C(=O)NCc4cccc(F)c4F)c3n2)cc1 [Compound I-88, N-[(2,3-difluorophenyl)methyl]-2-(4-isopropylsulfonylphenyl)-5H-pyrrolo[2,3-b]pyrazine-7-carboxamide] | < 100
Cc1cccc(C)c1CNC(=O)c1c[nH]c2ncc(-c3ccc(S(=O)(=O)C(C)C)cc3)nc12 [Compound I-89, N-[(2,6-dimethylphenyl)methyl]-2-(4-isopropylsulfonylphenyl)-5H-pyrrolo[2,3-b]pyrazine-7-carboxamide] | < 100
Cc1ccc([C@H](CCO)NC(=O)c2c[nH]c3ncc(-c4ccc(S(=O)(=O)C(C)C)cc4)nc23)cc1 [Compound I-91, N-[(1S)-3-hydroxy-1-(p-tolyl)propyl]-2-(4-isopropylsulfonylphenyl)-5H-pyrrolo[2,3-b]pyrazine-7-carboxamide] | 100 to 500
CC(C)S(=O)(=O)c1ccc(-c2cnc3[nH]cc(C(=O)NCc4cccc(Cl)c4F)c3n2)cc1 [Compound I-92, N-[(3-chloro-2-fluoro-phenyl)methyl]-2-(4-isopropylsulfonylphenyl)-5H-pyrrolo[2,3-b]pyrazine-7-carboxamide] | < 100
CC(C)S(=O)(=O)c1ccc(-c2cnc3[nH]cc(C(=O)NCC4CCC(CN)CC4)c3n2)cc1 (centres unmarked) [Compound I-93, N-[[4-(aminomethyl)cyclohexyl]methyl]-2-(4-isopropylsulfonylphenyl)-5H-pyrrolo[2,3-b]pyrazine-7-carboxamide] | 100 to 500
CC(C)S(=O)(=O)c1ccc(-c2cnc3[nH]cc(C(=O)NCC4(O)CCCCC4)c3n2)cc1 [Compound I-94, N-[(1-hydroxycyclohexyl)methyl]-2-(4-isopropylsulfonylphenyl)-5H-pyrrolo[2,3-b]pyrazine-7-carboxamide] | < 100

Other lines, results leading:

Ki [nM] | Structure (SMILES)
500 to 5000 | CCN(C(=O)c1c[nH]c2ncc(-c3ccc(S(=O)(=O)C(C)C)cc3)nc12)C1CCCCC1 [Compound I-95, N-cyclohexyl-N-ethyl-2-(4-isopropylsulfonylphenyl)-5H-pyrrolo[2,3-b]pyrazine-7-carboxamide]
100 to 500 | CC(C)S(=O)(=O)c1ccc(-c2cnc3[nH]cc(C(=O)NC4CCC4)c3n2)cc1 [Compound I-97, N-cyclobutyl-2-(4-isopropylsulfonylphenyl)-5H-pyrrolo[2,3-b]pyrazine-7-carboxamide]
< 100 | CC(C)S(=O)(=O)c1ccc(-c2cnc3[nH]cc(C(=O)NOc4ccccc4)c3n2)cc1 [Compound I-100, 2-(4-isopropylsulfonylphenyl)-N-phenoxy-5H-pyrrolo[2,3-b]pyrazine-7-carboxamide]
< 100 | CC(C)S(=O)(=O)c1ccc(-c2cnc3[nH]cc(C(=O)NCC4CCCCC4O)c3n2)cc1 (centres unmarked) [Compound I-101, N-[(2-hydroxycyclohexyl)methyl]-2-(4-isopropylsulfonylphenyl)-5H-pyrrolo[2,3-b]pyrazine-7-carboxamide]
100 to 500 | Cc1cccc([C@@H](CCO)NC(=O)c2c[nH]c3ncc(-c4ccc(S(=O)(=O)C(C)C)cc4)nc23)c1 [Compound I-102, N-[(1R)-3-hydroxy-1-(m-tolyl)propyl]-2-(4-isopropylsulfonylphenyl)-5H-pyrrolo[2,3-b]pyrazine-7-carboxamide]
500 to 5000 | CC(C)S(=O)(=O)c1ccc(-c2cnc3[nH]cc(C(=O)NC4CCS(=O)(=O)C4)c3n2)cc1 (centres unmarked) [Compound I-103, N-(1,1-dioxothiolan-3-yl)-2-(4-isopropylsulfonylphenyl)-5H-pyrrolo[2,3-b]pyrazine-7-carboxamide]
500 to 5000 | CC(C)S(=O)(=O)c1ccc(-c2cnc3[nH]cc(C(=O)NC4CCOCC4)c3n2)cc1 [Compound I-104, 2-(4-isopropylsulfonylphenyl)-N-tetrahydropyran-4-yl-5H-pyrrolo[2,3-b]pyrazine-7-carboxamide]
500 to 5000 | CC(C)S(=O)(=O)c1ccc(-c2cnc3[nH]cc(C(=O)NCC4(C)COC4)c3n2)cc1 [Compound I-105, 2-(4-isopropylsulfonylphenyl)-N-[(3-methyloxetan-3-yl)methyl]-5H-pyrrolo[2,3-b]pyrazine-7-carboxamide]
100 to 500 | CC(C)S(=O)(=O)c1ccc(-c2cnc3[nH]cc(C(=O)N[C@@H](C)CO)c3n2)cc1 [Compound I-106, N-[(1S)-2-hydroxy-1-methyl-ethyl]-2-(4-isopropylsulfonylphenyl)-5H-pyrrolo[2,3-b]pyrazine-7-carboxamide]
500 to 5000 | CCC(CC)NC(=O)c1c[nH]c2ncc(-c3ccc(S(=O)(=O)C(C)C)cc3)nc12 [Compound I-107, N-(1-ethylpropyl)-2-(4-isopropylsulfonylphenyl)-5H-pyrrolo[2,3-b]pyrazine-7-carboxamide]
500 to 5000 | CC(C)S(=O)(=O)c1ccc(-c2cnc3[nH]cc(C(=O)NC(c4ccccc4)c4ccccc4)c3n2)cc1 [Compound I-108, N-benzhydryl-2-(4-isopropylsulfonylphenyl)-5H-pyrrolo[2,3-b]pyrazine-7-carboxamide]
500 to 5000 | CC(c1ccccc1F)N(C)C(=O)c1c[nH]c2ncc(-c3ccc(S(=O)(=O)C(C)C)cc3)nc12 (centres unmarked) [Compound I-109, N-[1-(2-fluorophenyl)ethyl]-2-(4-isopropylsulfonylphenyl)-N-methyl-5H-pyrrolo[2,3-b]pyrazine-7-carboxamide]
100 to 500 | COC[C@H](C)NC(=O)c1c[nH]c2ncc(-c3ccc(S(=O)(=O)C(C)C)cc3)nc12 [Compound I-110, 2-(4-isopropylsulfonylphenyl)-N-[(1S)-2-methoxy-1-methyl-ethyl]-5H-pyrrolo[2,3-b]pyrazine-7-carboxamide]

Same assay, conditions: Ki(app); 5 nM full-length ATR, 10 μM ATP, 800 μM target peptide, 25° C.; given as numeric lower bound without unit; read-out: ATR Inhibition Ki

Ki [nM] | Structure (SMILES)
> 250 | CC(C)S(=O)(=O)c1ccc(-c2cnc3[nH]cc(C(=O)NCC4(N)CCCCC4)c3n2)cc1 [Compound I-90, N-[(1-aminocyclohexyl)methyl]-2-(4-isopropylsulfonylphenyl)-5H-pyrrolo[2,3-b]pyrazine-7-carboxamide]
> 4000 | CC(C)S(=O)(=O)c1ccc(-c2cnc3[nH]cc(C(=O)N4CCCN(C)CC4)c3n2)cc1 [Compound I-96, [2-(4-isopropylsulfonylphenyl)-5H-pyrrolo[2,3-b]pyrazin-7-yl]-(4-methyl-1,4-diazepan-1-yl)methanone]
> 4000 | CC(C)S(=O)(=O)c1ccc(-c2cnc3[nH]cc(C(=O)N4CCCC(N(C)C)C4)c3n2)cc1 (centres unmarked) [Compound I-98, [3-(dimethylamino)-1-piperidyl]-[2-(4-isopropylsulfonylphenyl)-5H-pyrrolo[2,3-b]pyrazin-7-yl]methanone]
> 4000 | CC(C)S(=O)(=O)c1ccc(-c2cnc3[nH]cc(C(=O)N4CCC(N(C)C)CC4)c3n2)cc1 [Compound I-99, [4-(dimethylamino)-1-piperidyl]-[2-(4-isopropylsulfonylphenyl)-5H-pyrrolo[2,3-b]pyrazin-7-yl]methanone]
